This passage reports MIC and zone of inhibition results from patent US4169197A, “6-Deoxyneamines aminoglycoside compounds” (The Upjohn Company, priority 1978, dated 1979).

Values after ≈ are worked out from the molar mass of the structure shown. Read-outs that look alike come from different tables or passages of the source.

Format in all cases: cell-based
The subject of assay [1] is K. pneumoniae UC 58. Put plainly: standard microplate test in BHI Agar. The following applies: Klebsiella pneumoniae. The method, then:
(§1) The compounds VII, XI, XVβ, XVα and XVI were tested in a standard microplate test in BHI (Brain Heart Infusion) Agar at a concentration of 1 mg./ml. and dilutions thereof at 37° incubation temperature. The end points are read out 20 hours. BHI Agar is supplied by Difco Laboratories, Detroit, Mich.

The subject of assay [2] is E. coli UC 45. Put plainly: standard microplate test in BHI Agar. The following applies: Escherichia coli, UC45, 37°, 20 hours, Table III, read-out: Minimum Inhibitory Concentration. As for the experimental part:
as §1

The subject of assay [3] is P. mirabilis UC 6671. Put plainly: standard microplate test in BHI Agar. The conditions noted are these: Proteus mirabilis, UC6671, 20 h. The method, then: as §1
Assay [4] concerns Ps. aeruginosa UC 95. Put plainly: standard microplate test in BHI Agar. The conditions noted are these: Pseudomonas aeruginosa. The method, then: as §1
For assay [5], the system named is P. rettgeri UC 339. In words: standard microplate test in BHI Agar. The conditions noted are these: Providencia rettgeri. The method, then:
as §1

For assay [6], the system named is S. pyogenes UC 152. In words: standard microplate test in BHI Agar. The following applies: Streptococcus pyogenes. The method, then: as §1
The test system of assay [7] is S. faecalis UC 694. In words: standard microplate test in BHI Agar. The conditions noted are these: Enterococcus faecalis. The method, then:
as §1

In assay [8] the test system is S. schottmuelleri UC 126. Put plainly: standard microplate test in BHI Agar. The conditions noted are these: 37°, 20 hours. The method, then:
as §1

The test system of assay [9] is S. pneumoniae I UC 41. Put plainly: standard microplate test in BHI Agar. The following applies: Streptococcus pneumoniae, UC41, 20 h. As for the experimental part: as §1
The subject of assay [10] is S. marcescens UC 131. Put plainly: standard microplate test in BHI Agar. The following applies: Serratia marcescens, UC131, 20 h. The method, then:
as §1

Assay [11] has as its system S. flexneri UC 143. In words: standard microplate test in BHI Agar. The conditions noted are these: Shigella flexneri, UC143, 37°, 20 hours. The method, then:
as §1

Assay [12] concerns P. morganii UC 3186. Put plainly: standard microplate test in BHI Agar. The conditions noted are these: Morganella morganii. The method, then:
as §1

Assay [13] relates to P. vulgaris UC 93. Put plainly: standard microplate test in BHI Agar. The conditions noted are these: Proteus vulgaris, UC93, 20 h. As for the experimental part: as §1
For assay [14], the system named is S. aureus UC 76. In words: standard microplate test in BHI Agar. The conditions noted are these: Staphylococcus aureus. As for the experimental part:
as §1

Assay [15] deals with S. typhi UC 215. In words: standard microplate test in BHI Agar. The conditions noted are these: Salmonella enterica, 20 h. The method, then: as §1
Assay [16] relates to S. lutea UC 130. In words: standard disc plate assay, zones of inhibition. The conditions noted are these: Micrococcus luteus, UC130; 1 mg/ml; 12.5 mm paper discs; Table I; read-out: Zones of Inhibition. The source says: (§2) The compounds of formulas (V, VII, IX, XI, XIV, XVI, and XIX) are active as antibacterials and can be used in various environments to erradicate or control susceptible microorganisms. Tables I and II set forth the in vitro antibacterial test results for representative compounds of the present invention. The results were obtained with a standard disc plate assay using 12.5 mm paper discs.

The subject of assay [17] is Ps. aeruginosa UC 95. In words: standard disc plate assay, zones of inhibition. The following applies: Pseudomonas aeruginosa, UC95; 1 mg/ml; 12.5 mm paper discs; Table I; read-out: Zones of Inhibition.
Text: as §2

The test system of assay [18] is K. pneumoniae UC 57. Put plainly: standard disc plate assay, zones of inhibition. The following applies: Klebsiella pneumoniae, UC57, 12.5 mm paper discs, Table I, read-out: Zones of Inhibition.
Text: as §2

For assay [19], the system named is E. coli UC 51. In words: standard disc plate assay, zones of inhibition. The conditions noted are these: Escherichia coli, UC51, 12.5 mm paper discs, Table I, read-out: Zones of Inhibition.
Text: as §2

The subject of assay [20] is S. gallinarum UC 265. Put plainly: standard disc plate assay, zones of inhibition. The conditions noted are these: Salmonella enterica, 12.5 mm paper discs, Table I, read-out: Zones of Inhibition.
Text: as §2

Assay [21] concerns S. schottmuelleri UC 126. Put plainly: standard disc plate assay, zones of inhibition. The following applies: 12.5 mm paper discs, Table I.
Text: as §2

Assay [22] has as its system S. aureus UC 80. In words: standard disc plate assay, zones of inhibition. The conditions noted are these: Staphylococcus aureus, UC80, 12.5 mm paper discs, Table I, read-out: Zones of Inhibition.
Text: as §2

For assay [23], the system named is B. subtilis UC 564. In words: standard disc plate assay, zones of inhibition. The conditions noted are these: Bacillus subtilis, UC564, 12.5 mm paper discs, Table I, read-out: Zones of Inhibition.
Text: as §2

The subject of assay [24] is P. vulgaris UC 93. Put plainly: standard disc plate assay, zones of inhibition. The conditions noted are these: Proteus vulgaris, UC93, 12.5 mm paper discs, Table I, read-out: Zones of Inhibition.
Text: as §2

In assay [25] the test system is B. cereus UC 3145. Put plainly: standard disc plate assay, zones of inhibition. The following applies: Bacillus cereus, UC3145, 12.5 mm paper discs, Table I, read-out: Zones of Inhibition.
Text: as §2

Assay [26] deals with E. coli UC 311. Put plainly: standard microplate test in BHI Agar. The following applies: Escherichia coli, UC311, 20 h, read-out: Minimal Inhibitory Concentration. As for the experimental part: as §1
The mark [27] stands for this setting: read-out: Minimum Inhibitory Concentration.
Where [28] appears, read: Table III, read-out: Minimum Inhibitory Concentration.
Setting [29] is: read-out: Minimal Inhibitory Concentration.
The mark [30] stands for this setting: Table IV, read-out: Minimal Inhibitory Concentration.

As to `NC[C@H]1O[C@H](O[C@H]2[C@H](O)C[C@H](N)C[C@@H]2N)[C@H](N)[C@@H](O)[C@@H]1O` [6-deoxyneamine (XI), 6-deoxyneamine], the MIC in assay [1] (UC58, 20 h, read-out: Minimum Inhibitory Concentration) was 7.8 µg/mL (≈ 25.5 µM); in assay [2] it was 31.2 µg/mL (≈ 102 µM); in [3] (setting [27]), 62.5 µg/mL (≈ 204 µM); in [4] (UC95, 20 h, read-out: Minimum Inhibitory Concentration), above 500 µg/mL; in assay [5] (UC339, 20 h, read-out: Minimum Inhibitory Concentration) it was 250 µg/mL (≈ 816 µM); in [6] (UC152, 20 h, read-out: Minimum Inhibitory Concentration), 15.6 µg/mL (≈ 50.9 µM). For the same compound, the MIC in assay [7] (UC694, 20 h, read-out: Minimum Inhibitory Concentration) was above 500 µg/mL; in [8] (setting [28]), 31.2 µg/mL (≈ 102 µM); in [9] (setting [27]), 62.5 µg/mL (≈ 204 µM); in assay [10] (setting [27]), 250 µg/mL (≈ 816 µM); in assay [11] (setting [28]) it was 62.5 µg/mL (≈ 204 µM); in assay [12] (UC3186, 20 h, read-out: Minimum Inhibitory Concentration) it was 62.5 µg/mL (≈ 204 µM). The MIC stood at 31.2 µg/mL (≈ 102 µM) in assay [13] (setting [27]); 3.9 µg/mL (≈ 12.7 µM) in assay [14] (UC76, BHI Agar, 37°, 20 hours, Table III, read-out: Minimum Inhibitory Concentration); 31.2 µg/mL (≈ 102 µM) in assay [15] (setting [27]).

As to `NC[C@H]1O[C@H](O[C@@H]2[C@@H](N)C[C@@H](N)C[C@H]2O[C@@H]2O[C@H](CO)[C@@H](O)[C@H]2O)[C@H](N)[C@@H](O)[C@@H]1O` [Compound XVβ, O-2,6-diamino-2,6-dideoxy-α-D-glucopyranosyl (1→4)-O-[β-D-ribofuranosyl(1→5)]-2,6-dideoxy-D-streptamine], the zone of inhibition at 1000 µg/mL in assay [16] stood at 19 mm; in assay [17], 15 mm; in [18] (1 mg/ml), 36 mm; in assay [19] (1 mg/ml) it was 27 mm; in assay [20] (1 mg/ml) it was 29 mm; in assay [21] (1 mg/ml) it was 24 mm. For the same compound, the zone of inhibition at 1000 µg/mL is 27 mm in [22] (1 mg/ml), 39 mm in assay [23] (1 mg/ml), 27 mm in [24] (1 mg/ml) and 26 mm in assay [25] (1 mg/ml). For the same compound, the zone of inhibition at 100 µg/mL is 28 mm in [18] (0.1 mg/ml); 20 mm in assay [19] (0.1 mg/ml); 21 mm in [20] (0.1 mg/ml); 16 mm in [21] (0.1 mg/ml); 19 mm in assay [22] (0.1 mg/ml); 31 mm in assay [23] (0.1 mg/ml). Moreover, the zone of inhibition at 100 µg/mL in [24] (0.1 mg/ml) came out at 18 mm; in [25] (0.1 mg/ml), 17 mm. For the same compound, the MIC was 31.2 µg/mL (≈ 71.2 µM) in assay [26]; 2 µg/mL (≈ 4.56 µM) in assay [1] (UC58, BHI Agar, 37°, 20 hours, Table IV, read-out: Minimal Inhibitory Concentration); 125 µg/mL (≈ 285 µM) in assay [3] (setting [29]); above 500 µg/mL in [4] (UC95, BHI Agar, 37°, 20 hours, Table IV, read-out: Minimal Inhibitory Concentration); above 500 µg/mL in [5] (UC339, BHI Agar, 37°, 20 hours, Table IV, read-out: Minimal Inhibitory Concentration); 3.9 µg/mL (≈ 8.89 µM) in assay [6] (UC152, BHI Agar, 37°, 20 hours, Table IV, read-out: Minimal Inhibitory Concentration). Also, the MIC in [7] (UC694, BHI Agar, 37°, 20 hours, Table IV, read-out: Minimal Inhibitory Concentration) came to 500 µg/mL (≈ 1140 µM); in assay [8] (setting [30]), 7.8 µg/mL (≈ 17.8 µM); in [9] (setting [29]), 15.6 µg/mL (≈ 35.6 µM); in assay [10] (setting [29]), 62.5 µg/mL (≈ 143 µM); in [11] (setting [30]), 31.2 µg/mL (≈ 71.2 µM); in assay [12] (UC3186, BHI Agar, 37°, 20 hours, Table IV, read-out: Minimal Inhibitory Concentration), 7.8 µg/mL (≈ 17.8 µM). The MIC worked out at 31.2 µg/mL (≈ 71.2 µM) in assay [13] (setting [29]); 31.2 µg/mL (≈ 71.2 µM) in assay [14] (UC76, 20 h, read-out: Minimal Inhibitory Concentration); 15.6 µg/mL (≈ 35.6 µM) in assay [15] (setting [29]).
